Calls of active or inactive are those of the source. Cut-off read from the data, not from the text of the source: actives have a measured IC50 and inactives only a lower limit.
target: Envelope glycoprotein gp160 (Human immunodeficiency virus 1, UniProt Q6QLK5); assay: cell-free HIV fusion peptide-binding blockers – biochemical, uHTS, fluorescence dequenching, […] (AID 1986)
Sequence (Q6QLK5 whole entry, the tested form may be a part): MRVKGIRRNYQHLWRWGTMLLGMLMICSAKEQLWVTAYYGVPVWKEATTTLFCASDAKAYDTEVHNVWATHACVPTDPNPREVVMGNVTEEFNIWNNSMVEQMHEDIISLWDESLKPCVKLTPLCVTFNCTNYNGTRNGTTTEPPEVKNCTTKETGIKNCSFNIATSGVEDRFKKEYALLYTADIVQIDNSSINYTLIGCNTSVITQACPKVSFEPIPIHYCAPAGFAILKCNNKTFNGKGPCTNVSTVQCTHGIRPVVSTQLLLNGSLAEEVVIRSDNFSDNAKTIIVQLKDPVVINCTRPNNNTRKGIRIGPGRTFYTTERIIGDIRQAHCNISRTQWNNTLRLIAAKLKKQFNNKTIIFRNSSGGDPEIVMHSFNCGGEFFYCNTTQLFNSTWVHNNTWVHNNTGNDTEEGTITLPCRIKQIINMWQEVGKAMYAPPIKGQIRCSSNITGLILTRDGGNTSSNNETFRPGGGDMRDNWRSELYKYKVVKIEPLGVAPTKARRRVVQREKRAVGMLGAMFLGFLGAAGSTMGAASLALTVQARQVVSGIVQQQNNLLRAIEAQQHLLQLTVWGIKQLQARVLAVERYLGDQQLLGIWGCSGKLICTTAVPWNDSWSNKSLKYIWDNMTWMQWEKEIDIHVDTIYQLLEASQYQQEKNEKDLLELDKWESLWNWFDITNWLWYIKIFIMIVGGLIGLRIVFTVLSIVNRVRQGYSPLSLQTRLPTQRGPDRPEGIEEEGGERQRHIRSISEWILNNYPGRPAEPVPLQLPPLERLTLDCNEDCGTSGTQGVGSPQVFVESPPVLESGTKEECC

SMILES	IC50
COc1ccc(NS(=O)(=O)c2ccc3c(c2)[C@H]2C=CC[C@H]2[C@@H](c2ccc(C(=O)O)cc2)N3)cc1	8.25 µM (active)
O=C1/C(=C\c2ccc(O)c(O)c2)C(c2ccccc2)=NN1c1ccccc1	17.6 µM (active)
CC(C)S(=O)(=O)C1=NSC2=NC(=O)/C(=C\c3ccc(-c4ccccc4)o3)C(=N)N21	8.73 µM (active)
